# Source: patent US10357478B2, “Polyamide compound and pharmaceutical composition for treating mitochondrial genetic diseases” (Triplex Therapeutics Inc., priority 2011, dated 2019)
# Tests used:
# [1] = test system: 2SD cybrid cells (MELAS cybrid cells); test: Replication of wild-type mtDNAs in MELAS cybrid cells (PCR-RFLP); assay type: cell-based; details: for increase level of wild-type mtDNAs in comparison with control: long-term (7, 15 or 35 days); for increase of wild-type mtDNAs: 35 days
# Description: The MLI polyamide was given to the cultivated MELAS cybrid cells to confirm if the wild-type mtDNAs were positively reproduced in cells.
# 2SD cybrid cells were seeded on a 10 cm dish, and the MLI polyamide dissolved in 50% DMSO was added to the complete DMEM so that a final concentration thereof became 1 μM, 5 μM, or 10 μM. The medium to which the MLI polyamide was added was replaced every third day. In the control experiments, DMSO with the same diluted rate was added to the medium. The polyamide solution in 50% DMSO solution was diluted with ddH2O so that the concentration of DMSO in the medium became 0.1% or less, or 0.05% at a maximum.
# Total DNAs were extracted from the cybrid cells treated by the MLI polyamide 14 days later, PCR-RFLP was then carried out, the bands were quantitatively analyzed by microchip electrophoresis (MCE-202 MultiNA; Shimadzu Corporation), and a mutation rate of the cybrid cells was analyzed.
# Further, long-term effects were analyzed when the concentration of the MLI polyamide in the medium was 1 μM, 500 nM, or 100 nM. Total DNAs were extracted from the cybrid cells 7 days, 15 days, or 35 days later, PCR-RFLP was then carried out, electrophoresis was performed on 2% agarose gel (1×TAE), and an increase level of the wild-type mtDNAs was measured.
# [2] = test system: wild-type dsDNA (normal (wild-type) mtDNA template, 21 bases containing the 3243rd base); test: EMSA (electrophoretic mobility shift assay), binding to wild-type oligo-DNA; details: 10^−4 M polyamide, 1 hour at 37° C.
# Description: (§1) In this Example, a binding specific to the base sequence was confirmed in vitro between the ML1 polyamide and the target. The assay was carried out in EMSA (electrophoretic mobility shift assay). The wild-type oligo-DNA with 21 bases containing the 3243rd base on which the A3243G mutation exists and the A3243G mutation oligo-DNA thereof were produced. A sense-stranded DNA with FITC bound at 5′-end and an antisense-stranded DNA were thermally denatured, slowly cooled, and annealed to obtain dsDNAs having the following sequence:
# (§2) To dsDNA (50 pmol/10 μL), 40 μL of ddH2O was added and the whole was diluted to 1 pmol/μL. 4 pmol of the resulting dsDNA were mixed with the MLI polyamide solution so that the concentration became 10^−4M, and incubated for 1 hour at 37° C. Then, the sample was mixed with a loading buffer and applied on 20% non-denatured acrylamide gel (0.5×TBE) which was pre-run for 10 minutes at 350 V. An electrophoresis was carried out at 4′C and 100 V until BPB reached ¾ of the lower end of the gel, and a shift of the band was detected by LAS-3000 (Fuji Film).
# (§3) The composition of the non-denatured acrylamide gel used in EMSA is shown as below: […]
# [3] = test system: A3243G mutant dsDNA (A3243G mutation mtDNA template); test: EMSA (electrophoretic mobility shift assay), binding to A3243G mutation oligo-DNA; details: 10^−4 M polyamide, 1 hour at 37° C.
# Description: as §1, §2, §3
# 143B cells = test: Cytotoxicity in DMEM without sodium pyruvate and uridine, 143B cells; assay type: cell-based; details: 100 nM, 500 nM or 1 μM, 30 hours or 1 week
# Description: (§4) 143B cells or HeLa cells were cultured in a medium prepared by adding 1 μM of ML1 polyamide to a 10% FBS-added DMEM (free of sodium pyruvate and uridine) wherein respiratory chain-defective cells are inviable. The synthesis of the respiratory chain proteins in mitochondria is essential to life-support, and only a slight dysfunction thereof results in cell death.
# (§5) 143B cells or HeLa cells were cultured for a week in normal DMEM, complete DMEM (containing 0.1 mg/mL of sodium pyruvate, and 50 μg/mL of uridine), complete DMEM with the ML1 polyamide, or DMEM with the ML1 polyamide, and survival or death was observed.
# (§6) In the culture of 143B cells, the MLI polyamide was added at the concentration of 100 nM, 500 nM, or 1 μM, whereas in the culture of Hela cells, the MLI polyamide was added at the concentration of 1 μM.
# HeLa cells = test: Cytotoxicity in DMEM without sodium pyruvate and uridine, HeLa cells; assay type: cell-based; details: 1 μM, 30 hours or 1 week
# Description: as §4, §5, §6
# [4] = 1 μM, 14 days, PCR-RFLP, microchip electrophoresis
# [5] = 5 μM, 14 days, PCR-RFLP, microchip electrophoresis
smiles,measurement,setting,value
"CC(=O)Nc1cc(C(=O)Nc2cc(C(=O)Nc3cc(C(=O)NCCC(=O)Nc4cn(C)c(C(=O)Nc5cc(C(=O)Nc6cc(C(=O)NCCCC(=O)Nc7cn(C)c(C(=O)Nc8cn(C)c(C(=O)Nc9cc(C(=O)NCCC(=O)Nc%10cn(C)c(C(=O)Nc%11cc(C(=O)Nc%12cn(C)c(C(=O)NCCC(=O)NCCCN(C)C)n%12)n(C)c%11)n%10)n(C)c9)n8)n7)n(C)c6)n(C)c5)n4)n(C)c3)n(C)c2)n(C)c1 [ML1 polyamide, Ac-Py-Py-Py-β-Im-Py-Py-γ-Im-Im-Py-β-Im-Py-Im-β-Dp]",increase level of wild-type mtDNAs in comparison with control,"[1]; 100 nM, PCR-RFLP, agarose gel",grossly visible increase level
same,increase level of wild-type mtDNA,"[1]; 500 nM, 15 days, agarose gel",significant increase level
same,increase of wild-type mtDNAs,"[1]; 500 nM, agarose gel",continuous increase level
same,increase of wild-type mtDNAs,"[1]; 500 nM, agarose gel, listed as MLI polyamide",continuous increase
same,increase level of wild-type mtDNAs in comparison with control,"[1]; 500 nM, PCR-RFLP, agarose gel",grossly visible increase level
same,increase level of wild-type mtDNA,[1]; [4],increase levels of wild-type mtDNA
same,mutation rate of the cybrid cells,[1]; [4],decrease of the mutation rate
same,increase level of wild-type mtDNA,"[1]; 1 μM, 14 days, PCR-RFLP, microchip electrophoresis, listed as MLI polyamide",concentration-dependent increase level
same,increase level of wild-type mtDNAs in comparison with control,"[1]; 1 μM, PCR-RFLP, agarose gel",grossly visible increase level
same,increase level of wild-type mtDNA,[1]; [5],increase levels of wild-type mtDNA
same,mutation rate of the cybrid cells,[1]; [5],decrease of the mutation rate
same,increase level of wild-type mtDNA,"[1]; 5 μM, 14 days, PCR-RFLP, microchip electrophoresis, listed as MLI polyamide",concentration-dependent increase level
same,shift of the band of wild-type dsDNA in EMSA,[2],significantly shifted
same,shift of the band of wild-type dsDNA in EMSA,[2]; listed as MLI polyamide,clear shift of the band
same,shift of the band of A3243G mutant dsDNA in EMSA,[3],no significant shift
same,shift of the band of A3243G mutant dsDNA in EMSA,[3]; listed as MLI polyamide,not clearly observed
same,morphological changes or cell cytotoxicity,143B cells,did not show any morphological changes or cell cytotoxicity
same,morphological changes or cell cytotoxicity,HeLa cells,did not show any morphological changes or cell cytotoxicity
